# Assay results from patent US9526737B2, “Oxysterols for activation of hedgehog signaling, osteoinduction, antiadipogenesis, and Wnt signaling” (THE REGENTS OF THE UNIVERSITY OF CALIFORNIA, priority 2007, dated 2016).
# Where two headings read alike, the source gives them in different places.
# Key:
# [1] = tested on: marrow stromal cells; experiment: Osteoinductive properties (osteoblast differentiation markers: ALP activity, osteocalcin mRNA, mineralization); assay type: cell-based; conditions: induction of osteoblast differentiation markers
# Text: Oxysterols discussed in this application include those designated as Oxy22, Oxy26, Oxy27, Oxy28, Oxy39, Oxy40, Oxy41, Oxy42, Oxy48, Oxy49, Oxy20, Oxy34, Oxy36, Oxy38, Oxy50, Oxy51, Oxy52, and Oxy53. At least the following oxysterols have been identified as osteoinductive: Oxy22, Oxy26, Oxy27, Oxy28, Oxy39, Oxy40, Oxy41, Oxy42, Oxy48, Oxy49, Oxy50, Oxy51, Oxy52, and Oxy53. The osteoinductive properties of these oxysterols is shown by their ability to induce the expression of various osteoblast differentiation markers, including alkaline phosphatase activity, osteocalcin mRNA expression, and mineralization. These oxysterols are activators of the hedgehog signaling pathway.
# [2] = tested on: M2-10B4 marrow stromal cells; experiment: Alkaline phosphatase (ALP) activity assay; conditions: for fold induction at 1.25 µM / fold induction at 2.5 µM / fold induction at 5 µM: M210B4, 72 h; for Alkaline phosphatase activity versus control vehicle (significance): 1.25 μM, 3 days, p>0.05
# Protocol: The protocol is a modification of alkaline phosphatase assay kit from Sigma. Cells are cultured in 24-well tissue culture plates. After treatments with test agents, cells are rinsed twice with PBS and scraped into 200 ml of lysis buffer (0.2% NP-40 in 1 mM MgCl2) and sonicated for 10 seconds. Next, 1 ml of reaction mixture is added to each well. Reaction mixture is 221 alkaline buffer (Sigma): stock substrate solution (1:1). Stock substrate solution is prepared by dissolving 40 mg of Sigma 104 phosphatase substrate in 10 ml of ddH2O. After addition of reaction mixture to lysed cells, incubation is performed for 30 minutes at 37 C. […] The reaction is stopped by the addition of 12 ml of 1N NaOH to each well, and absorbance is determined at 405 nm. Alkaline phosphatase activity is calculated using p-nitrophenol as a standard, according to Sigma kit's instructions. Results are normalized to total protein in each well determined using the Bio-Rad protein assay solution (Bio-Rad Laboratories).
# M2-10B4 marrow stromal cells were treated with oxysterols at various doses for 3 days after which they were collected and analyzed by calorimetric assay for alkaline phosphatase activity (a marker of osteoblastic differentiation) (Table 1); the alkaline phosphatase assay described above was used.
# M2-10B4 marrow stromal cells were treated with oxysterols at various doses for 3 days after which they were collected and analyzed by colorimetric assay for alkaline phosphatase activity (a marker of osteoblastic differentiation) (Table 2); the alkaline phosphatase assay described above was used.
# M2-10B4 bone marrow stromal cells were treated in culture with control vehicle (C) or various oxysterol (Oxy) molecules as indicated at either 1.25 (1) or 2.5 (2) μM concentrations. After 3 days of treatment, alkaline phosphatase activity as a measure of early osteogenic differentiation of cells was measured in whole cell lysates (See FIG. 9 and Table 3); the alkaline phosphatase assay described above was used.
# [3] = tested on: Naked Cuticle 2 (Nkd2) mRNA expression; assay type: cell-based; conditions: M2 cells pre-treated 2 h with inhibitor, then 5 μM SS for 48 h
# Protocol: (§1) Total RNA was extracted with the RNA isolation kit from Stratagene (La Jolla, Calif.) according to the manufacturer's instructions. RNA was DNase-treated using the DNA-free kit from Ambion, Inc. (Austin, Tex.). 3 μg of RNA was reverse-transcribed using reverse transcriptase from Stratagene (La Jolla, Calif.) to make single stranded cDNA. The cDNAs were mixed with Qi SYBR Green Supermix from Bio-Rad Laboratories (Hercules, Calif.) for quantitative RT-PCR using a Bio-Rad I-cycler IQ quantitative thermocycler. All PCR samples were prepared in triplicate or quadruplicate. Each sample was added to duplicate wells of a 96-well plate. After 40 cycles of PCR, melt curves were analyzed in order to ensure primer specificity, and the identity of all PCR products were verified by sequencing and comparing with the complete mRNA sequence obtained from PubMed's GenBank. Fold changes in gene expression were calculated using the ΔΔCt method (14). All primers were designed using the Beacon Designer software from Bio-Rad Laboratories (Hercules, Calif.). Primers used are as follows: OCN (5′-[…]-3′ (SEQ ID NO: 1) and 5′-[…]-3′ (SEQ ID NO: 2)), Axin2(5′[…]-3′ (SEQ ID NO: 3) and 5′-[…]-3′ (SEQ ID NO: 4)), Cyclin D1(5′-[…]-3′ (SEQ ID NO: 5) and 5′-[…]-3′ (SEQ ID NO: 6)), NKD2 (5′-[…]-3′ (SEQ ID NO: 7) and 5′[…]-3′ (SEQ ID NO: 8)), WIF-1 (5′-[…]-3′ (SEQ ID NO: 9) and 5′-[…]-3′ (SEQ ID NO: 10)), and GAPDH (5′-[…]-3′ (SEQ ID NO: 11) and 5′-[…]-3′ (SEQ ID NO: 12)).
# (§2) M2 cells were treated with 5 μM SS, 200 ng/ml Shh, or control vehicle for 48 h. RNA was isolated and analyzed by Q-RT-PCR for Nkd2 (E) and WIF-1 (F) expression (See FIGS. 4E and 4F).
# (§3) M2 cells were pre-treated for 2 h with vehicle or cyclopamine (Cyc) at the concentrations indicated. Next, cells were treated with 5 μM SS or control vehicle for 48 h. RNA was isolated and analyzed for Nkd2 (A) and WIF-1 (B) expression by Q-RT-PCR (See FIGS. 5A and 5B).
# (§4) M2 cells were pre-treated for 2 h with Dkk-1 or vehicle. Next, cells were treated with 5 μM SS or control vehicle for 48 h. RNA was isolated and analyzed for Nkd2 (C), Wif-1 (D), and Ptch (E) expression (See FIGS. 5C-5E).
# (§5) M2 cells were pre-treated for 2 h with 5 μM LY, 2.5 μM Wm, or vehicle followed by treatment with 5 μM SS or control vehicle for 48 h. RNA was isolated and analyzed for Nkd2 (FIG. 7E) and Wif-1 (FIG. 7F) expression.
# [4] = tested on: Wnt Inhibitory factor-1 (Wif-1) mRNA expression; assay type: cell-based; conditions: M2 cells pre-treated 2 h with inhibitor, then 5 μM SS for 48 h
# Protocol: as §1, §2, §3, §4, §5
# [5] = tested on: Patched (Ptch) mRNA expression; experiment: Q-RT-PCR for Patched (Ptch) mRNA expression; assay type: cell-based; conditions: M2 cells pre-treated 2 h with inhibitor, then 5 μM SS for 48 h
# Protocol: Total RNA was extracted with the RNA isolation kit from Stratagene (La Jolla, Calif.) according to the manufacturer's instructions. RNA was DNase-treated using the DNA-free kit from Ambion, Inc. (Austin, Tex.). 3 μg of RNA was reverse-transcribed using reverse transcriptase from Stratagene (La Jolla, Calif.) to make single stranded cDNA. The cDNAs were mixed with Qi SYBR Green Supermix from Bio-Rad Laboratories (Hercules, Calif.) for quantitative RT-PCR using a Bio-Rad I-cycler IQ quantitative thermocycler. All PCR samples were prepared in triplicate or quadruplicate. Each sample was added to duplicate wells of a 96-well plate. After 40 cycles of PCR, melt curves were analyzed in order to ensure primer specificity, and the identity of all PCR products were verified by sequencing and comparing with the complete mRNA sequence obtained from PubMed's GenBank. Fold changes in gene expression were calculated using the ΔΔCt method (14). All primers were designed using the Beacon Designer software from Bio-Rad Laboratories (Hercules, Calif.). […]
# M2 cells were pre-treated for 2 h with Dkk-1 or vehicle. […] RNA was isolated and analyzed for Nkd2 (C), Wif-1 (D), and Ptch (E) expression (See FIGS. 5C-5E).
# [6] = read-out: Fold Induction in alkaline phosphatase activity over control untreated cells
# [7] = read-out: Fold Induction in alkaline phosphatase activity compared to control untreated cells
smiles,measurement,setting,value
"C[C@]12CC[C@H](O)C[C@@H]1[C@@H](O)C[C@@H]1[C@@H]2CC[C@@]2(C)[C@H]1CC[C@@H]2[C@@](C)(O)CCCc1cccs1 [Oxy50, (3S,5S,6S,8R,9S,10R,13S,14S,17S)-17-((S)-2-hydroxy-5-(thiophen-2-yl)pentan-2-yl)-10,13-dimethylhexadecahydro-1H-cyclopenta[a]phenanthrene-3,6-diol]",Osteoinductive property,[1],osteoinductive
same,fold induction at 1.25 µM,[2]; [6],25
same,fold induction at 2.5 µM,[2]; [6],65
"C[C@]12CC[C@H](O)C[C@@H]1[C@@H](O)C[C@@H]1[C@@H]2CC[C@@]2(C)[C@H]1CC[C@@H]2[C@@](C)(O)CCc1ccccc1 [Oxy52, (3S,5S,6S,8R,9S,10R,13S,14S,17S)-17-((S)-2-hydroxy-4-phenylbutan-2-yl)-10,13-dimethylhexadecahydro-1H-cyclopenta[a]phenanthrene-3,6-diol]",Osteoinductive property,[1],osteoinductive
same,fold induction at 1.25 µM,[2]; [6],5
same,fold induction at 2.5 µM,[2]; [6],22
"C[C@]12CC[C@H](O)C[C@@H]1[C@@H](O)C[C@@H]1[C@@H]2CC[C@@]2(C)[C@H]1CC[C@@H]2[C@@](C)(O)CC#Cc1cccs1 [Oxy51, (3S,5S,6S,8R,9S,10R,13S,14S,17S)-17-((S)-2-hydroxy-5-(thiophen-2-yl)pent-4-yn-2-yl)-10,13-dimethylhexadecahydro-1H-cyclopenta[a]phenanthrene-3,6-diol]",Osteoinductive property,[1],osteoinductive
same,Alkaline phosphatase activity versus control vehicle (significance),[2],not significant
same,fold induction at 1.25 µM,[2]; [6],3
same,fold induction at 2.5 µM,[2]; [6],20
"CC(C)C/C=C/[C@](C)(O)C1CC[C@H]2[C@@H]3CC=C4C[C@@H](O)CC[C@]4(C)[C@H]3CC[C@]12C (stereo partly drawn) [Oxy20, (3S,8S,9S,10R,13S,14S)-17-((S,E)-2-hydroxy-6-methylhept-3-en-2-yl)-10,13-dimethyl-2,3,4,7,8,9,10,11,12,13,14,15,16,17-tetradecahydro-1H-cyclopenta[a]phenanthren-3-ol]",fold induction at 2.5 µM,[2]; [7],36
same,fold induction at 5 µM,[2]; [7],68
"C=C(C)CCC[C@](C)(O)[C@H]1CC[C@H]2[C@@H]3C[C@H](OC(C)=O)[C@H]4C[C@@H](O)CC[C@]4(C)[C@H]3CC[C@@]21C [Oxy41, (3S,5S,6S,8R,9S,10R,13S,14S,17S)-3-Hydroxy-17-((S)-2-hydroxy-6-methylhept-6-en-2-yl)-10,13-dimethylhexadecahydro-1H-cyclopenta[a]phenanthren-6-yl acetate]",Osteoinductive property,[1],osteoinductive
same,fold induction at 2.5 µM,[2]; [7],46
same,fold induction at 5 µM,[2]; [7],175
CC(=O)O[C@H]1CC2C3CCC([C@@](C)(O)CCCC(C)C)[C@@]3(C)CCC2[C@@]2(C)CC[C@H](O)C[C@H]12 (stereo partly shown) [Oxy28],Osteoinductive property,[1],osteoinductive
same,fold induction at 2.5 µM,[2]; [7],59
same,fold induction at 5 µM,[2]; [7],75
"CC(CO)CCC[C@](C)(O)[C@H]1CC[C@H]2[C@@H]3C[C@H](O)[C@H]4C[C@@H](O)CC[C@]4(C)[C@H]3CC[C@@]21C (stereo partly drawn) [Oxy48, (3S,5S,6S,8R,9S,10R,13S,14S,17S)-17-((2S)-2,7-Dihydroxy-6-methylheptan-2-yl)-10,13-dimethylliexadecahydro-1H-cyclopenta[a]phenanthrene-3,6-diol]",Osteoinductive property,[1],osteoinductive
same,fold induction at 2.5 µM,[2]; [7],11
same,fold induction at 5 µM,[2]; [7],43
"C[C@]12CC[C@H](O)C[C@@H]1[C@@H](O)C[C@@H]1[C@@H]2CC[C@@]2(C)[C@H]1CC[C@@H]2[C@@](C)(O)CCCc1ccccc1 [Oxy53, (3S,5S,6S,8R,9S,10R,13S,14S,17S)-17-((S)-2-hydroxy-5-phenylpentan-2-yl)-10,13-dimethylhexadecahydro-1H-cyclopenta[a]phenanthrene-3,6-diol]",Osteoinductive property,[1],osteoinductive
same,Alkaline phosphatase activity versus control vehicle (significance),[2],not significant
same,fold induction at 1.25 µM,[2]; [6],2
same,fold induction at 2.5 µM,[2]; [6],11
"C[C@]12CC[C@H]3[C@@H](CC=C4C[C@@H](O)CC[C@@]43C)[C@@H]1CC[C@@H]2[C@@](C)(O)CCc1ccccc1 [Oxy27, (3S,8S,9S,10R,13S,14S,17S)-17-((S)-2-Hydroxy-4-phenylbutan-2-yl)-10,13-dimethyl-2,3,4,7,8,9,10,11,12,13,14,15,16,17-tetradecahydro-1H-cyclopenta[a]phenanthren-3-ol]",Osteoinductive property,[1],osteoinductive
same,fold induction at 2.5 µM,[2]; [7],17
same,fold induction at 5 µM,[2]; [7],42
"C[C@]12CC[C@H]3[C@@H](CC=C4C[C@@H](O)CC[C@@]43C)[C@@H]1CC[C@@H]2[C@@](C)(O)CCc1ccccc1F [Oxy39, (3S,8S,9S,10R,13S,14S,17S)-17-((S)-4-(2-Fluorophenyl)-2-hydroxybutan-2-yl)-10,13-dimethyl-2,3,4,7,8,9,10,11,12,13,14,15,16,17-tetradecahydro-1H-cyclopenta[a]phen-anthren-3-ol]",Osteoinductive property,[1],osteoinductive
same,fold induction at 2.5 µM,[2]; [7],52
same,fold induction at 5 µM,[2]; [7],148
"CC1=C2C[C@H]3[C@@H](CC=C4C[C@@H](O)CC[C@@]43C)[C@@H]2CC[C@]12O[C@@H]1C[C@H](C)CN[C@H]1[C@H]2C [cyclopamine, reference compound]",Inhibition of oxysterol-induced Nkd2 expression,[3],did not inhibit
same,Inhibition of oxysterol-induced Wif-1 expression,[4],completely blocked
same,Inhibition of oxysterol-induced Patched (Ptch) mRNA expression,[5],completely abolished
C[C@]12CCC3C(CC=C4C[C@@H](O)CC[C@@]43C)C1CCC2[C@@](C)(O)CCCc1ccccc1 (stereo partly shown) [Oxy22],Osteoinductive property,[1],osteoinductive
same,fold induction at 2.5 µM,[2]; [7],4
same,fold induction at 5 µM,[2]; [7],9
"C[C@]12CC[C@H]3[C@@H](CC=C4C[C@@H](O)CC[C@@]43C)[C@@H]1CC[C@@H]2[C@@](C)(O)CC#Cc1cccs1 [Oxy26, (3S,8S,9S,10R,13S,14S,17S)-17-((S)-2-Hydroxy-5-(thiophen-2-yl)pent-4-yn-2-yl)-10,13-dimethyl-2,3,4,7,8,9,10,11,12,13,14,15,16,17-tetradecahydro-1H-cyclopenta-[a]phenanthren-3-ol]",Osteoinductive property,[1],osteoinductive
same,fold induction at 2.5 µM,[2]; [7],27
same,fold induction at 5 µM,[2]; [7],76
CC(CO)CCC[C@](C)(O)[C@H]1CC[C@H]2[C@@H]3CC=C4C[C@@H](O)CC[C@]4(C)[C@H]3CC[C@@]21C (stereo partly shown) [Oxy40],Osteoinductive property,[1],osteoinductive
same,fold induction at 2.5 µM,[2]; [7],28
same,fold induction at 5 µM,[2]; [7],105
"C[C@]12CC[C@H]3[C@@H](CC=C4C[C@@H](O)CC[C@@]43C)[C@@H]1CC[C@@H]2[C@@](C)(O)CCCc1cccs1 [Oxy42, (3S,8S,9S,10R,13S,14S,17S)-17-((S)-2-Hydroxy-5-(thiophen-2-yl)pentan-2-yl)-10,13-dimethyl-2,3,4,7,8,9,10,11,12,13,14,15,16,17-tetradecahydro-1H-cyclopenta[a]phen-anthren-3-ol]",Osteoinductive property,[1],osteoinductive
same,fold induction at 2.5 µM,[2]; [7],166
same,fold induction at 5 µM,[2]; [7],290
